Laboratory results published in patent US12084451B2, “Compositions and methods for reducing tactile dysfunction, anxiety, and social impairment” (President and Fellows of Harvard College, priority 2018, dated 2024).
“And” between values parts separate entries of the source, which are not always exact repeats. Equal entries are not always repeated.

Experiments:
Type in all cases: cell-based
[1] = target: T1, hGABAA α1β3γ2 (Homo sapiens, UniProt P14867+P18507+P28472); experiment: hGABAA IonFlux HT PAM Assay, α1β3γ2; conditions: for Mean Maximal Effect (% of Control): normalized to baseline peak current induced by EC20 GABA (1 μM) for 2 seconds
T1 sequence (P14867 28-456): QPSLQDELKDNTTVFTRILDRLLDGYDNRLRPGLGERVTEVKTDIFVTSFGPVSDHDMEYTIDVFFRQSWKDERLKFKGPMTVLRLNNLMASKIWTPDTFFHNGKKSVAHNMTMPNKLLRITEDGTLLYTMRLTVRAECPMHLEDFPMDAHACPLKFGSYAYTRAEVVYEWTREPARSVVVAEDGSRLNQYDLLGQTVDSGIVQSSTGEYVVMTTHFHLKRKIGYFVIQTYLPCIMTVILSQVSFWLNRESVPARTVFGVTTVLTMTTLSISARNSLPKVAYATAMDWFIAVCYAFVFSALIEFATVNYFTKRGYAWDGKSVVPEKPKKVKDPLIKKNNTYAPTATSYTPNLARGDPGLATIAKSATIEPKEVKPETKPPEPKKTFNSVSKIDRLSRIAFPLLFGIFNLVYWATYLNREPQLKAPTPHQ
T1 sequence (P28472 26-473): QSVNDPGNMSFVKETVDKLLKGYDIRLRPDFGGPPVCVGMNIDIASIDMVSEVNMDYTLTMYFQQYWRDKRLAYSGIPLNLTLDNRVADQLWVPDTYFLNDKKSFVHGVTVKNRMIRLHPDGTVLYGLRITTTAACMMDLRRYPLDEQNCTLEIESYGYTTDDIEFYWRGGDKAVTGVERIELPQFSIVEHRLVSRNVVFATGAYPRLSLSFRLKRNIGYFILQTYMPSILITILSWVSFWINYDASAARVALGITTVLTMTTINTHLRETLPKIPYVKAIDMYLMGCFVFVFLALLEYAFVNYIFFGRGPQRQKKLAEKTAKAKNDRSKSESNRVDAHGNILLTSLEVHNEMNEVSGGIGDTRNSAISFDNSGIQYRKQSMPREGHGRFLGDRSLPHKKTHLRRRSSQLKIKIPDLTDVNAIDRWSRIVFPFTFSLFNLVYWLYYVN
T1 sequence (P18507 40-475): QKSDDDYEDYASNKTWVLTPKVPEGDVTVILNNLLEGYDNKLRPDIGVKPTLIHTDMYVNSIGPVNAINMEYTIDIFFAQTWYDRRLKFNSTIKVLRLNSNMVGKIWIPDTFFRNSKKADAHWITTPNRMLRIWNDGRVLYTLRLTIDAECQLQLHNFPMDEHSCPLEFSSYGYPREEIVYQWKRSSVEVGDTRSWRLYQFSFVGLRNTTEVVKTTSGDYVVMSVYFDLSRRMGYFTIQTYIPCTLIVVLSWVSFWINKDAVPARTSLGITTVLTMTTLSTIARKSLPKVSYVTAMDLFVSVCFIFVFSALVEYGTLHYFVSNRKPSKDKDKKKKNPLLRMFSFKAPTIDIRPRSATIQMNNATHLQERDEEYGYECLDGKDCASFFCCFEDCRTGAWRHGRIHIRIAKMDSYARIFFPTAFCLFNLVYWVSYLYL
Excerpt: (§1) Ligand-gated ion channels targeted were hGABAA α1β3γ2 and hGABAA α2β3γ2.
(§2) Electrophysiological assays conducted to profile nine (9) compounds for activities on the on channel targets listed above for Positive Allosteric Modulator (PAM) activities using the IonFlux HT electrophysiological platform.
The parameters measured are described in the Data Analysis section.
(§3) All wells included a final DMSO concentration of 0.33% including all control wells.
(§4) All recordings were obtained from a holding potential of −60 mV. The compound addition sequence that was used for all additions was the same for all assays. […] The process was repeated with the next ascending concentration of test compound (FIG. 1).
(§5) All data were first exported to an Excel compatible data file and then analyzed using Graph Pad Prism software.

[2] = target: hGABAA α2β3γ2 (Homo sapiens, UniProt P18507+P28472+P47869); experiment: hGABAA IonFlux HT PAM Assay, α2β3γ2; conditions: for Mean Maximal Effect (% of Control): normalized to baseline peak current induced by EC20 GABA (0.8 μM) for 2 seconds
Sequence of hGABAA α2β3γ2 (P47869 29-451): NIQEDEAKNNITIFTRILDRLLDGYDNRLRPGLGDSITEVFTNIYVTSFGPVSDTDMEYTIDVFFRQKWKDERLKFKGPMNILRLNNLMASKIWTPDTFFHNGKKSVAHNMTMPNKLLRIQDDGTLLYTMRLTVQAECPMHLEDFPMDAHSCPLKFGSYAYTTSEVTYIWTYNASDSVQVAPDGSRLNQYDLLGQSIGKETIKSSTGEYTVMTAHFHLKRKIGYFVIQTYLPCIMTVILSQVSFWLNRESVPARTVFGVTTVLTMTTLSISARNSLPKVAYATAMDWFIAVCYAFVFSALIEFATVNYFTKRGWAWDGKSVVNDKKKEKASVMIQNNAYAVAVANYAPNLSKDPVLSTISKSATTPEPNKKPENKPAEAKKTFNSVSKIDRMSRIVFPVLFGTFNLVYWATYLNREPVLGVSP
Sequence of hGABAA α2β3γ2 (P28472 26-473): as the sequence (P28472 26-473) above
Sequence of hGABAA α2β3γ2 (P18507 40-475): as the sequence (P18507 40-475) above
Excerpt: as §1, §2
The parameters measured are described in the Data Analysis section. […] Open circles represent data that has been excluded from the curve fitting. Where no curve fit was possible, n/c (not calculable) is listed.
as §3, §4, §5

[3] = target: T1, hGABAA α1β3γ2; experiment: hGABAA α1β3γ2 IonFlux HT Agonist Assay; set-up: activation of hGABAA α1β3γ2 ion channel currents / activation: dose or concentration left out as unconfirmed
Protocol: Ligand-gated ion channel targets were hGABAA α2β3γ2 and hGABAA α1β3γ2. Electrophysiological assays conducted to profile two compounds for agonist activities on hGABAA α2β3γ2 and seven compounds for agonist activities on hGABAA α1β3γ2 using the IonFlux HT electrophysiological platform.
The parameters measured are described in the Data Analysis section. […] Note: The test compounds was applied over two (2) ‘experimental patterns’ in increasing concentrations.
The supplied compound was prepared in DMSO to concentrations that were 300× the final assay concentrations. Aliquots were taken out and diluted 300× into external buffer to give the final assay concentration. At wells included a final DMSO concentration of 0.33% including all control wets.
All recordings were obtained from a holding potential of −60 mV. The compound addition sequence that was used for all additions was the same for all assays. […] Each test concentration of compound was applied for 2 seconds followed by 60 seconds wash. The process was repeated with the next ascending concentration of test compound. The test compounds were applied over two (2) ‘experimental patterns’ in increasing concentrations (FIG. 11).
AM data were first exported to an Excel compatible data file and then analyzed using Graph Pad Prism software.

[4] = read-out: Normalized Percentage Activation Mean

CN1C(=O)CN=C(c2ccccc2)c2cc(Cl)ccc21 [Diazepam]
(%) Control mean ([1]; 0.003 μM + EC20 GABA): 124.0 % Control and 122.6 % Control and 125.3 % Control | (%) Control n1 ([1]; 0.003 μM + EC20 GABA): 123.6 % Control and 125.3 % Control and 121.6 % Control | (%) Control n2 ([1]; 0.003 μM + EC20 GABA): 124.3 % Control and 119.9 % Control and 129.0 % Control | (%) Control mean ([1]; 0.01 μM + EC20 GABA): 148.4 % Control and 139.6 % Control and 149.7 % Control | (%) Control n1 ([1]; 0.01 μM + EC20 GABA): 149.5 % Control and 141.4 % Control and 137.2 % Control | (%) Control n2 ([1]; 0.01 μM + EC20 GABA): 147.2 % Control and 137.8 % Control and 162.2 % Control | (%) Control mean ([1]; 0.03 μM + EC20 GABA): 186.5 % Control and 171.8 % Control and 193.2 % Control | (%) Control n1 ([1]; 0.03 μM + EC20 GABA): 182.7 % Control and 182.4 % Control and 169.0 % Control | (%) Control n2 ([1]; 0.03 μM + EC20 GABA): 190.3 % Control and 161.2 % Control and 217.4 % Control | (%) Control mean ([1]; 0.1 μM + EC20 GABA): 250.0 % Control and 234.6 % Control and 223.1 % Control | (%) Control n1 ([1]; 0.1 μM + EC20 GABA): 230.0 % Control and 227.4 % Control and 232.1 % Control | (%) Control n2 ([1]; 0.1 μM + EC20 GABA): 269.9 % Control and 241.8 % Control and 214.1 % Control | (%) Control mean ([1]; 0.3 μM + EC20 GABA): 298.9 % Control and 284.3 % Control and 269.3 % Control | (%) Control n1 ([1]; 0.3 μM + EC20 GABA): 265.9 % Control and 275.1 % Control and 262.8 % Control | (%) Control n2 ([1]; 0.3 μM + EC20 GABA): 331.8 % Control and 293.6 % Control and 275.8 % Control | (%) Control mean ([1]; 1 μM + EC20 GABA): 317.0 % Control and 310.4 % Control and 314.3 % Control | (%) Control n1 ([1]; 1 μM + EC20 GABA): 284.9 % Control and 296.1 % Control and 284.8 % Control | (%) Control n2 ([1]; 1 μM + EC20 GABA): 349.1 % Control and 324.7 % Control and 343.8 % Control | Mean Maximal Effect (% of Control) [1]: 317 % of Control and 310 % of Control and 314 % of Control | (%) Control mean ([2]; 0.003 μM + EC20 GABA): 116.0 % Control and 114.8 % Control and 100.4 % Control | (%) Control n1 ([2]; 0.003 μM + EC20 GABA): 113.8 % Control and 112.4 % Control and 113.2 % Control | (%) Control n2 ([2]; 0.003 μM + EC20 GABA): 118.1 % Control and 117.2 % Control and 87.7 % Control | (%) Control mean ([2]; 0.01 μM + EC20 GABA): 135.3 % Control and 124.0 % Control and 118.1 % Control | (%) Control n1 ([2]; 0.01 μM + EC20 GABA): 131.2 % Control and 123.3 % Control and 122.4 % Control | (%) Control n2 ([2]; 0.01 μM + EC20 GABA): 139.3 % Control and 124.7 % Control and 113.8 % Control | (%) Control mean ([2]; 0.03 μM + EC20 GABA): 162.5 % Control and 158.2 % Control and 142.3 % Control | (%) Control n1 ([2]; 0.03 μM + EC20 GABA): 155.2 % Control and 156.2 % Control and 150.5 % Control | (%) Control n2 ([2]; 0.03 μM + EC20 GABA): 169.9 % Control and 160.3 % Control and 134.2 % Control | (%) Control mean ([2]; 0.1 μM + EC20 GABA): 252.4 % Control and 255.8 % Control and 206.0 % Control | (%) Control n1 ([2]; 0.1 μM + EC20 GABA): 261.1 % Control and 261.6 % Control and 216.8 % Control | (%) Control n2 ([2]; 0.1 μM + EC20 GABA): 243.8 % Control and 249.9 % Control and 195.1 % Control | (%) Control mean ([2]; 0.3 μM + EC20 GABA): 253.5 % Control and 261.6 % Control and 214.1 % Control | (%) Control n1 ([2]; 0.3 μM + EC20 GABA): 267.8 % Control and 260.9 % Control and 230.4 % Control | (%) Control n2 ([2]; 0.3 μM + EC20 GABA): 239.3 % Control and 262.3 % Control and 197.8 % Control | (%) Control mean ([2]; 1 μM + EC20 GABA): 262.3 % Control and 269.3 % Control and 224.3 % Control | (%) Control n1 ([2]; 1 μM + EC20 GABA): 274.0 % Control and 285.9 % Control and 235.0 % Control | (%) Control n2 ([2]; 1 μM + EC20 GABA): 250.6 % Control and 252.8 % Control and 213.6 % Control | Mean Maximal Effect (% of Control) [2]: 262 % of Control and 269 % of Control and 224 % of Control

CCCN(CCNC)C(=O)Cc1c(-c2ccc(Cl)cc2)nc2ccc(Cl)cn12 [Compound 3]
EC50 ([1]; Estimated EC50, positive modulation of EC20 GABA current): 0.081 µM | Mean Maximal Effect (% of Control) [1]: 331 % of Control | Mean Maximal Effect (% of Control) [2]: 240 % of Control | EC50 ([2]; positive modulation of EC20 GABA current, read-out: Estimated EC50): 1.1 µM | EC50 [3]: > 1000 µM | activation of hGABAA α1β3γ2 ion channel currents [3]: did not activate | activation [3, 4]: 3.53% | activation at 0.3 µM [3, 4]: 1.99% | activation at 1 µM [3, 4]: 1.9% | activation at 3 µM [3, 4]: 2.32% | activation at 10 µM [3, 4]: 6.3% | activation at 30 µM [3, 4]: 2.98% | activation at 100 µM [3, 4]: 3.63% | activation at 300 µM [3, 4]: 8.78%

Cc1ccc(-c2nc3ccc(C)cn3c2CC(=O)N(C)C)cc1 [Zolpidem]
(%) Control mean ([1]; 0.001 μM + EC20 GABA): 110.7 % Control | (%) Control n1 ([1]; 0.001 μM + EC20 GABA): 116.2 % Control | (%) Control n2 ([1]; 0.001 μM + EC20 GABA): 105.2 % Control | (%) Control mean ([1]; 0.01 μM + EC20 GABA): 141.9 % Control | (%) Control n1 ([1]; 0.01 μM + EC20 GABA): 144.3 % Control | (%) Control n2 ([1]; 0.01 μM + EC20 GABA): 139.4 % Control | (%) Control mean ([1]; 0.1 μM + EC20 GABA): 267.3 % Control | (%) Control n1 ([1]; 0.1 μM + EC20 GABA): 278.5 % Control | (%) Control n2 ([1]; 0.1 μM + EC20 GABA): 256.1 % Control | (%) Control mean ([1]; 1 μM + EC20 GABA): 292.4 % Control | (%) Control n1 ([1]; 1 μM + EC20 GABA): 294.8 % Control | (%) Control n2 ([1]; 1 μM + EC20 GABA): 290.1 % Control | (%) Control mean ([1]; 10 μM + EC20 GABA): 318.1 % Control | (%) Control n1 ([1]; 10 μM + EC20 GABA): 326.1 % Control | (%) Control n2 ([1]; 10 μM + EC20 GABA): 310.1 % Control | (%) Control mean ([1]; 100 μM + EC20 GABA): 330.6 % Control | (%) Control n1 ([1]; 100 μM + EC20 GABA): 349.7 % Control | (%) Control n2 ([1]; 100 μM + EC20 GABA): 311.6 % Control | Mean Maximal Effect (% of Control) [1]: 331 % of Control | Mean Maximal Effect (% of Control) [2]: 304 % of Control
